We go through 28 compounds from patent US10131644B2, “Aryl sultam derivatives as RORc modulators” (Genentech, Inc., priority 2014, dated 2018).

For the experiment, the target named is T1, RORc (Homo sapiens, UniProt P51449).
T1 sequence (P51449 269-508 limits assumed): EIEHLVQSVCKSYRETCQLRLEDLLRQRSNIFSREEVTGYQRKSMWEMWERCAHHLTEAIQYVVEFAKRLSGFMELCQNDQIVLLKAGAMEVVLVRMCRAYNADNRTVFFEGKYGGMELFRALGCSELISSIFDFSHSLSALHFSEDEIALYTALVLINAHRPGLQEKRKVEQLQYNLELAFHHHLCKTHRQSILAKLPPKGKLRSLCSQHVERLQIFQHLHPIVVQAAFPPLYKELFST
In words: In vitro RORc ligand binding assay (25-[3H]hydroxycholesterol displacement). As to conditions: IC50, IC50 values for RORc; unit inferred.
As for `C[C@H]1CC[C@H](c2ccccc2)S(=O)(=O)N1Cc1ccc(C2(C(=O)NCCCN)CCOCC2)cc1F` [Compound 55, N-(3-aminopropyl)-4-[3-fluoro-4-[[(3S,6R)-3-methyl-1,1-dioxo-6-phenyl-thiazinan-2-yl]methyl]phenyl]tetrahydropyran-4-carboxamide], the IC50 worked out at 913 nM.
`C[C@H]1CC[C@H](c2ccccc2)S(=O)(=O)N1Cc1cc(F)c(C2(C(N)=O)CCOCC2)cc1F` [Compound 102, 4-[2,5-difluoro-4-[[(3S,6R)-3-methyl-1,1-dioxo-6-phenyl-thiazinan-2-yl]methyl]phenyl]tetrahydropyran-4-carboxamide] returned a 50% inhibitory concentration (IC50) of 37.8 nM.
Turning to `C[C@H]1CC[C@H](c2ccccc2)S(=O)(=O)N1Cc1cc(F)c(C2(C#N)CCOCC2)cc1F` [Compound 122, 4-[2,5-difluoro-4-[[(3S,6R)-3-methyl-1,1-dioxo-6-phenyl-thiazinan-2-yl]methyl]phenyl]tetrahydropyran-4-carbonitrile], the 50% inhibitory concentration (IC50) was determined as 26.8 nM.
`COC1(OC)CC(C#N)(c2ccc(CN3[C@@H](C)CC[C@H](c4ccccc4)S3(=O)=O)c(F)c2)C1` [Compound 160, 1-[3-fluoro-4-[[(3S,6R)-3-methyl-1,1-dioxo-6-phenyl-thiazinan-2-yl]methyl]phenyl]-3,3-dimethoxy-cyclobutanecarbonitrile] came in with an IC50 of 14.5 nM.
For `C[C@H]1CC[C@H](c2ccccc2)S(=O)(=O)N1Cc1ccc(C2(COCC(N)=O)CCOCC2)cc1F` [Compound 121], the IC50 worked out at 16 nM.
As for `C[C@H]1CC[C@H](c2ccccc2)S(=O)(=O)N1Cc1ccc(C2(CCC(=O)O)CCOCC2)cc1F` [Compound 84, 3-[4-[3-fluoro-4-[[(3S,6R)-3-methyl-1,1-dioxo-6-phenyl-thiazinan-2-yl]methyl]phenyl]tetrahydropyran-4-yl]propanoic acid], the IC50 worked out at 49.2 nM.
In turn, `C[C@H](O)CNC(=O)C1(c2ccc(CN3[C@@H](C)CC[C@H](c4ccccc4)S3(=O)=O)c(F)c2)CCOCC1` [Compound 63, 4-[3-fluoro-4-[[(3S,6R)-3-methyl-1,1-dioxo-6-phenyl-thiazinan-2-yl]methyl]phenyl]-N-[(2S)-2-hydroxypropyl]tetrahydropyran-4-carboxamide] gave an IC50 of 36 nM.
`C[C@H]1CC[C@H](c2ccccc2)S(=O)(=O)N1Cc1ccc(C2(CCC#N)CCOCC2)cc1F` [Compound 86, 3-[4-[3-fluoro-4-[[(3S,6R)-3-methyl-1,1-dioxo-6-phenyl-thiazinan-2-yl]methyl]phenyl]tetrahydropyran-4-yl]propanenitrile] gave a half-maximal inhibitory concentration (IC50) of 7.8 nM.
With `C[C@H]1CC[C@H](c2ccccc2)S(=O)(=O)N1Cc1ccc(C2(CCO)CCOCC2)cc1F` [Compound 78, 2-[4-[3-fluoro-4-[[(3S,6R)-3-methyl-1,1-dioxo-6-phenyl-thiazinan-2-yl]methyl]phenyl]tetrahydropyran-4-yl]ethanol] the figure was 13.7 nM.
On to `C[C@H]1CC[C@@H](c2ccccc2)S(=O)(=O)N1Cc1ccc(C2(O)CCS(=O)(=O)CC2)cc1F` [Compound 41, (3S,6S)-2-(2-fluoro-4-(4-hydroxy-1,1-dioxidotetrahydro-2H-thiopyran-4-yl)benzyl)-3-methyl-6-phenyl-1,2-thiazinane 1,1-dioxide], for which the concentration for half-maximal inhibition (IC50) was found to be 1200 nM.
For the compound `C[C@H]1CC[C@H](c2ccccc2)S(=O)(=O)N1Cc1cc(F)c(C2(OCC(N)=O)CCOCC2)cc1F` [Compound 150, 2-[4-[2,5-difluoro-4-[[(3S,6R)-3-methyl-1,1-dioxo-6-phenyl-thiazinan-2-yl]methyl]phenyl]tetrahydropyran-4-yl]oxyacetamide], the 50% inhibitory concentration (IC50) worked out at 6.1 nM. Compared with the last compound, the IC50 is about 200-fold lower.
With `C[C@H]1CC[C@@H](c2ccccc2)S(=O)(=O)N1Cc1ccc(C2(C(=O)NCCO)CCOCC2)cc1F` [Compound 47, 4-(3-fluoro-4-(((3S,6S)-3-methyl-1,1-dioxido-6-phenyl-1,2-thiazinan-2-yl)methyl)phenyl)-N-(2-hydroxyethyl)tetrahydro-2H-pyran-4-carboxamide], the IC50 is 991 nM. Compared with the last compound, the IC50 is about 160-fold higher.
In the case of `CCOC(=O)C[C@H](O)C1(c2ccc(CN3[C@@H](C)CC[C@H](c4ccccc4)S3(=O)=O)c(F)c2)CCOCC1` [Compound 115, ethyl (3S)-3-[4-[3-fluoro-4-[[(3S,6R)-3-methyl-1,1-dioxo-6-phenyl-thiazinan-2-yl]methyl]phenyl]tetrahydropyran-4-yl]-3-hydroxy-propanoate], the 50% inhibitory concentration (IC50) is 39.5 nM.
`CC(=O)N1CCC(OCC(N)=O)(c2cc(F)c(CN3[C@@H](C)CC[C@H](c4ccccc4)S3(=O)=O)cc2F)CC1` [Compound 141, 2-[[1-acetyl-4-[2,5-difluoro-4-[[(3S,6R)-3-methyl-1,1-dioxo-6-phenyl-thiazinan-2-yl]methyl]phenyl]-4-piperidyl]oxy]acetamide] had a concentration for half-maximal inhibition (IC50) of 26 nM.
As for `C[C@H]1CC[C@H](c2ccccc2)S(=O)(=O)N1Cc1ccc(C2(C(=O)NCC(N)=O)CCOCC2)cc1F` [Compound 59, N-(2-amino-2-oxo-ethyl)-4-[3-fluoro-4-[[(3S,6R)-3-methyl-1,1-dioxo-6-phenyl-thiazinan-2-yl]methyl]phenyl]tetrahydropyran-4-carboxamide], the 50% inhibitory concentration (IC50) is 268 nM.
The result for `C[C@H]1CC[C@H](c2ccccc2)S(=O)(=O)N1Cc1ccc(C2(CCC(=O)N(C)C)CCOCC2)cc1F` [Compound 85, 3-[4-[3-fluoro-4-[[(3S,6R)-3-methyl-1,1-dioxo-6-phenyl-thiazinan-2-yl]methyl]phenyl]tetrahydropyran-4-yl]-N,N-dimethyl-propanamide] reads 10.5 nM.
The compound `CCOC(=O)[C@H](C)NC1(c2ccc(CN3[C@@H](C)CC[C@H](c4ccccc4)S3(=O)=O)c(F)c2)CCOCC1` [Compound 184, ethyl (2S)-2-[[4-[3-fluoro-4-[[(3S,6R)-3-methyl-1,1-dioxo-6-phenyl-thiazinan-2-yl]methyl]phenyl]tetrahydropyran-4-yl]amino]propanoate] showed an IC50 of 40.9 nM.
The result for `C[C@H]1CC[C@@H](c2ccccc2)S(=O)(=O)N1Cc1ccc(C2(C(=O)O)CCOCC2)cc1F` [Compound 45, 4-[3-Fluoro-4-((3S,6S)-3-methyl-1,1-dioxo-6-phenyl-[1,2]thiazinan-2-ylmethyl)-phenyl]-tetrahydro-pyran-4-carboxylic acid] reads 6100 nM.
For `C[C@H]1CC[C@H](c2ccccc2)S(=O)(=O)N1Cc1ccc(C2(NC(=O)CO)CCOCC2)cc1F` [Compound 95, N-[4-[3-fluoro-4-[[(3S,6R)-3-methyl-1,1-dioxo-6-phenyl-thiazinan-2-yl]methyl]phenyl]tetrahydropyran-4-yl]-2-hydroxy-acetamide], the IC50 turned out to be 122 nM.
Consider `C[C@H]1CC[C@H](c2ccccc2)S(=O)(=O)N1Cc1cc(F)c(C2(OCC(=O)O)CCOCC2)cc1F` [Compound 145, 2-[4-[2,5-difluoro-4-[[(3S,6R)-3-methyl-1,1-dioxo-6-phenyl-thiazinan-2-yl]methyl]phenyl]tetrahydropyran-4-yl]oxyacetic acid], for which the half-maximal inhibitory concentration (IC50) worked out at 14.3 nM.
`C[C@H]1CC[C@H](c2ccccc2)S(=O)(=O)N1Cc1ccc(C2(CN)CCOCC2)cc1F` [Compound 75, [4-[3-fluoro-4-[[(3S,6R)-3-methyl-1,1-dioxo-6-phenyl-thiazinan-2-yl]methyl]phenyl]tetrahydropyran-4-yl]methanamine] showed an IC50 of 639 nM.
In turn, `CCOC(=O)CCC1(c2ccc(CN3[C@@H](C)CC[C@H](c4ccccc4)S3(=O)=O)c(F)c2)CCOCC1` [Compound 79, ethyl 3-[4-[3-fluoro-4-[[(3S,6R)-3-methyl-1,1-dioxo-6-phenyl-thiazinan-2-yl]methyl]phenyl]tetrahydropyran-4-yl]propanoate] showed an IC50 of 4.9 nM.
The compound `CC(=O)N1CC(OCC(O)CO)(c2cc(F)c(CN3[C@@H](C)CC[C@H](c4ccccc4)S3(=O)=O)cc2F)C1` (stereo partly drawn) [Compound 143, 1-[3-[2,5-difluoro-4-[[(3S,6R)-3-methyl-1,1-dioxo-6-phenyl-thiazinan-2-yl]methyl]phenyl]-3-(2,3-dihydroxypropoxy)azetidin-1-yl]ethanone] registered an IC50 of 29.8 nM.
The result for `C[C@H]1CC[C@H](c2ccccc2)S(=O)(=O)N1Cc1ccc(C2(C#N)CC2)cc1F` [Compound 109, 1-[3-fluoro-4-[[(3S,6R)-3-methyl-1,1-dioxo-6-phenyl-thiazinan-2-yl]methyl]phenyl]cyclopropanecarbonitrile] reads 116 nM.
In turn, `C[C@H]1CC[C@H](c2ccccc2)S(=O)(=O)N1Cc1ccc(OCC2(CS(C)(=O)=O)CCOCC2)cc1F` [Example 4, (3S,6R)-2-[2-Fluoro-4-(4-methanesulfonylmethyl-tetrahydro-pyran-4-ylmethoxy)-benzyl]-3-methyl-6-phenyl-[1,2]thiazinane 1,1-dioxide] registered an IC50 of 46 nM. This IC50 is about 2.5-fold lower than that of the compound before.
The result for `C[C@H]1CC[C@H](c2ccccc2)S(=O)(=O)N1Cc1ccc(C2(C(=O)NCC(C)(C)O)CCOCC2)cc1F` [Compound 62, 4-[3-fluoro-4-[[(3S,6R)-3-methyl-1,1-dioxo-6-phenyl-thiazinan-2-yl]methyl]phenyl]-N-(2-hydroxy-2-methyl-propyl)tetrahydropyran-4-carboxamide] reads 149 nM; that for `C[C@H]1CC[C@H](c2ccccc2)S(=O)(=O)N1Cc1ccc(C2(C#N)CCC3(CC2)OCCO3)cc1F` [Example 21, 8-[3-Fluoro-4-((3S,6R)-3-methyl-1,1-dioxo-6-phenyl-[1,2]thiazinan-2-ylmethyl)-phenyl]-1,4-dioxa-spiro[4.5]decane-8-carbonitrile], 35 nM.
The result for `C[C@H]1CC[C@@H](c2ccccc2)S(=O)(=O)N1Cc1cc(F)c([C@]2(O)CC[C@@H](n3cnnc3)CC2)cc1F` [Compound 36, 1-[2,5-Difluoro-4-((3S,6S)-3-methyl-1,1-dioxo-6-phenyl-[1,2]thiazinan-2-ylmethyl)-phenyl]-4-[1,2,4]triazol-4-yl-cyclohexanol] reads 13 nM.
